Drawing on a melting point compilation (Tetko et al.; mined from patent text by program, amines drawn as free bases though some values may be those of a salt), this text covers melting point for 31 compounds.

Broadly, the melting point is the temperature of the solid-liquid transition. In the case of `COc1ccc2c(c1CNC(=O)OCC1c3ccccc3-c3ccccc31)Oc1c(ccc(OC)c1CC(=O)O)C2(C)C`, the melting point lay in the range of 134 to 136 °C. `Cc1ccc2c(c1)sc1ncc(C(O)CCc3ccccc3)n12` (stereo unspecified) registered a melting point of 209 to 210 °C.

Compound `COC(=O)CCCOc1ccc(CNC(=O)C2Cc3ccccc3N2S(=O)(=O)c2ccc(-c3cccc(C(F)(F)F)c3)cc2)cc1` (stereo unspecified) came in with a melting point of 50 °C. For `CCCc1nc2c(c(C)c(C)n3nnnc23)n1CC(C)(C)NS(C)(=O)=O` the value was 190 to 192 °C; for `COC(=O)C[C@H](O)C[C@H](O)CCc1c(-c2ccc(F)cc2)c(-c2ccc(F)cc2)c(C(=O)Nc2ccc(S(N)(=O)=O)cc2)n1C(C)C`, 106 to 108 °C. With `CCCCc1ccc2nc(Cl)cn2n1`, the melting point lay in the range of 61 to 63 °C. The compound `CN(C)c1ccc(C=CC(C=C(c2ccc(N(C)C)cc2)c2ccc(N(C)C)cc2)C=C(c2ccc(N(C)C)cc2)c2ccc(N(C)C)cc2)cc1` gave a melting point of 78 to 82 °C. As for `C=CCN1CCn2c1nc1ccc(Cl)cc1c2=O`, the melting point lay within 91 to 93 °C. The compound `CNC1(C)CN(c2nc3c(cc2F)c(=O)c(C(=O)O)cn3C2CC2)C1` returned a melting point of 283 to 286 °C. Compound `O=C1Nc2ccc(F)c(F)c2C(C#Cc2ccccn2)(C(F)(F)F)N1` (racemic) displayed a melting point of 219 to 220 °C. With `CC(=O)C1Cc2ccc(O)c(O)c2C1=O` (stereo unspecified), the melting point lay in the range of 159 to 160 °C. For `CCCC[C@H](NC(=O)[C@H](CC(C)C)NC(=O)c1c(F)ccc(F)c1F)C(=O)CSCc1ccco1`, the melting point lay within 116 to 117 °C. As to `CC(C)(CO)NS(=O)(=O)c1cccc(NC(=O)c2cnn3c(C(F)(F)F)cc(-c4ccc(Cl)c(Cl)c4)nc23)c1`, the melting point turned out to be 269 °C. In turn, `CCNc1nc(NCc2ccco2)nc(Nc2ccc3nc(C)sc3c2)n1` returned a melting point of 97 to 99 °C.

Regarding `OC1CSC(Oc2cccc(-c3cnccn3)c2)C(O)C1O` (stereo unspecified), the melting point lay in the range of 206 to 209 °C. `O=C(NC[C@@H](C(=O)NO)N1CCCCC1)c1ccc(OCc2ccncc2)cc1` returned a melting point of 190 °C. `CC(C)(C)c1ccc(C(=O)CCCN2CCC(C(=O)c3nc4ccccc4n3Cc3ccc(F)cc3)CC2)cc1` had a melting point of 105 to 106 °C. To `CS(=O)c1ccc(OCCCOc2cc(OCCCCCCCCCCCCOc3ccccc3)cc(N(CC(=O)O)CC(=O)O)c2)cc1` (stereo unspecified) belongs 106 to 108 °C; to `O=[N+]([O-])c1cccc(S(=O)(=O)NCCc2ccncc2)c1`, 138 °C. To `O=C(O)C1(C(F)(F)F)NNC2=C1CCCC2` (stereo unspecified) belongs 183 to 184 °C. For `O=C(Cc1ccc(F)cc1F)c1ccc(I)cc1F` the value was 81 to 82 °C; for `COC(=O)C(c1ccccc1CCl)C(OC)OC` (stereo unspecified), 63.5 to 64.5 °C. `O=C(NCCO)c1ccccc1S(=O)(=O)Cc1c(O[C@H](Cn2ccnc2)c2ccccc2)ccc2c1CCCC2=O` displayed a melting point of 241 to 243 °C. Compound `CCOCC1=C(C(=O)OCC)C(c2ccccc2)C(C(=O)OCC)=C(C)N1` (stereo unspecified) displayed a melting point of 112 °C. Compound `CCN1C(=O)CCCc2cc(Nc3ncc(Cl)c(Nc4ccccc4S(=O)(=O)C(C)C)n3)c(OC)cc21` showed a melting point of 195 to 197 °C. The compound `CC(C)(C)OC(=O)N1CCC(Nc2ccc3nc(NC(=O)c4ccc(C(C)(C)C)cc4)cn3n2)C1` (stereo unspecified) gave a melting point of 264 to 265 °C. In turn, `CC(C)(C)c1ccc(CI)cc1[N+](=O)[O-]` had a melting point of 98 to 99 °C.

For the compound `O=S(=O)(Oc1ccc(-c2cc3ccc(OS(=O)(=O)c4ccccc4)cc3s2)cc1)c1ccccc1`, the melting point fell in the range of 138 to 139 °C.

On to `COc1ccc(CNC(=O)c2cc3c(=O)n(CCS(=O)(=O)c4ccccc4)c(=O)n(C)c3s2)cc1`, for which the melting point was 118 to 121 °C. As to `Nc1cccc(Cn2c(-c3ccc(C4=CC=CNC4)cc3)ccc2-c2ccccc2Cl)n1`, the melting point lay in the range of 163 to 166 °C. The compound `COC(=O)c1ccc(NC(=O)OCC2c3ccccc3-c3ccccc32)cc1O` returned a melting point of 156 to 159 °C.
